Assay results as given in patent US20150030593A1, “COMPOSITIONS OF PENETRATION-ENHANCED TARGETING PROTEINS AND METHODS OF USE” (PERMEON BIOLOGICS, INC., priority 2013, published 2015).

Experiments:
Format in all cases: cell-based
[1] = system: MDA-MB-468 (Her2^Low) cells; assay: Flow cytometry detection of internalized GFP protein (Example 4); conditions: 1 μM, 2 hours, serum free media
Description: These two types of cells express different levels of Her2 protein (FIG. 8). […] MDA-MB-468 cells express very low levels of Her2 (referred to as Her2^Low) while AU565 cells express high levels of Her2 (referred to as Her2^high).
The media were replaced with serum free media containing 1 μM of a protein listed below, and incubated for 2 hours. Cells were washed 3×PBS, trypsinized, fixed with 4% PFA, washed with PBS and then analyzed by flow cytometry with detection of GFP.
Results: Flow cytometry analysis is indicative of the amount of protein internalized into the cells. FIGS. 9A and 9B show the flow cytometry data obtained for different tested samples at various conditions. The median fluorescence values obtained from the flow cytometry peak minus the median fluorescence values of untreated cells (background fluorescence) are shown in FIGS. 10A and 10B. See also Table 7. The first column indicates identifies the GFP-component of the construct used for the particular sample treatment. The second and third columns represents fluorescence in MDA-MB-468 cells following treatment with each of the GFP proteins alone (second column; examples of use of CPMs alone) or with each of the GFP-C6.5 fusion proteins (third column; examples of fusion proteins comprising a target-binding region and a CPM region). The fourth and fifth column fluorescence in AU565 cells following treatment with each of the GFP proteins alone (fourth column; examples of use of CPMs alone) or with each of the GFP-C6.5 fusion proteins (fifth column; examples of fusion proteins comprising a target-binding region and a CPM region).

AU565 (Her2^high) cells [2] = assay: as above; conditions: 1 μM, 2 hours, serum free media
SKOV-3 cells (Her2^high) = assay: Cellular uptake by fluorescence microscopy; conditions: 1 μM, 1 hour
Description: These images were taken to assess cellular uptake of these GFP-containing proteins by fluorescence microscopy. The images shown are an overlay of phase contrast and GFP fluorescence images.
In addition, SKOV-3 cells (Her2^high) were treated with 1 μM of proteins for 1 hour, and then images were taken to assess cellular uptake of GFP proteins by fluorescence microscopy (FIG. 11A).

AU565 (Her2^high) cells [3] = assay: Flow cytometry uptake in mixed cell population, concentration series (Example 5); conditions: 2 h, first set
Description: (§1) The media were replaced with serum free media containing indicated concentrations of protein listed below and incubated for 2 h. Cells were washed 3×PBS, trypsinized, fixed with 4% PFA, stained with Her2 Ab-APC for 0.5 hour, washed with PBS and then analyzed by flow cytometry with detection of GFP.
(§2) The tested proteins of the first and second sets of experiments were applied to the mixed cell population for two hours.
(§3) The above data were also plotted in FIGS. 13A-13H to show the median fluorescence value minus background fluorescence of untreated cells (background adjusted fluorescence) (Y-axis) as a function of concentration (X-axis) for each of the tested proteins in this Example. Cellular uptake of the proteins was measured by GFP fluorescence. Her2 expression level was measured by using a Her2 antibody conjugated with allophycocyanin (APC). Gating was applied to the flow cytometry data to identify Her2^1′ versus Her2^high populations. […] The Her2^low profiles (diamond) are indicative of the profile of charged GFP alone. The Her2^high profiles (square) are indicative of the profile of the charged GFP in combination with the target-binding region—C6.5 scFv. The data of sfGFP-C6.5 on the Her2^high cells reflects the profile of the target-binding region (C6.5) by itself.

[4] = system: MDA-MB-468 (Her2^Low) cells; assay: as above; conditions: 2 h; for Median Fluorescence Values, MDA-MB-468 cells (Her2−) C6.5-GFP / Median Fluorescence Values, MDA-MB-468 cells (Her2−) GFP-C6.5: first set; for Median Fluorescence Values, Her2− GFP-C6.5: second set
Description: as §1, §2, §3

AU565 (Her2^high) cells [5] = assay: Flow cytometry uptake in mixed cell population, time course (Example 6); conditions: 0.1 μM
Description: (§4) The media were replaced with serum free media containing 0.1 μM of protein listed below and incubated for 10 minutes, 30 minutes or 4 hours. Cells were washed 3×PBS, trypsinized, stained with Her2 Antibody-APC for 0.5 hours, washed with PBS and then analyzed by flow cytometry with detection of GFP.

[6] = system: MDA-MB-468 (Her2^Low) cells; assay: as above; conditions: 0.1 μM
Description: as §4

C6.5-+15GFP: fusion of N-terminal C6.5 scFv, (S4G)6 spacer, +15GFP, His6
median fluorescence values, MDA-MB-468 (Her2^Low) GFP-C6.5 [1]: 767,627
median fluorescence values, AU565 (Her2^high) GFP-C6.5 (AU565 (Her2^high) cells [2]): 2,170,916
cellular uptake by fluorescence microscopy (SKOV-3 cells (Her2^high)): internalized efficiently in the cells
Median Fluorescence Values, AUS65 cells (Her2+) C6.5-GFP (AU565 (Her2^high) cells [3]; 0.03 uM): 75,821
Median Fluorescence Values, AUS65 cells (Her2+) C6.5-GFP (AU565 (Her2^high) cells [3]; 0.1 uM): 162,337
Median Fluorescence Values, AUS65 cells (Her2+) C6.5-GFP (AU565 (Her2^high) cells [3]; 0.3 uM): 305,944
Median Fluorescence Values, AUS65 cells (Her2+) C6.5-GFP (AU565 (Her2^high) cells [3]; 1 uM): 822,351
Median Fluorescence Values, MDA-MB-468 cells (Her2−) C6.5-GFP ([4]; 0.03 uM): 13,355
Median Fluorescence Values, MDA-MB-468 cells (Her2−) C6.5-GFP ([4]; 0.1 uM): 36,070
Median Fluorescence Values, MDA-MB-468 cells (Her2−) C6.5-GFP ([4]; 0.3 uM): 82,571
Median Fluorescence Values, MDA-MB-468 cells (Her2−) C6.5-GFP ([4]; 1 uM): 306,260
cellular uptake (flow cytometry with detection of GFP), Her2+ C6.5-GFP (AU565 (Her2^high) cells [5]; 10 min): 37,044
cellular uptake (flow cytometry with detection of GFP), Her2+ C6.5-GFP (AU565 (Her2^high) cells [5]; 30 min): 61,007
cellular uptake (flow cytometry with detection of GFP), Her2+ C6.5-GFP (AU565 (Her2^high) cells [5]; 4 h): 184,844
cellular uptake (flow cytometry with detection of GFP), Her2− C6.5-GFP ([6]; 10 min): 13,517
cellular uptake (flow cytometry with detection of GFP), Her2− C6.5-GFP ([6]; 30 min): 17,194
cellular uptake (flow cytometry with detection of GFP), Her2− C6.5-GFP ([6]; 4 h): 96,599

+15GFP-C6.5: fusion of +15GFP, (S4G)6 spacer, C6.5 scFv, His6
median fluorescence values, MDA-MB-468 (Her2^Low) GFP-C6.5 [1]: 313,629
median fluorescence values, AU565 (Her2^high) GFP-C6.5 (AU565 (Her2^high) cells [2]): 413,838
Median Fluorescence Values, AUS65 cells (Her2+) GFP-C6.5 (AU565 (Her2^high) cells [3]; 0.03 uM): 37,663
Median Fluorescence Values, AUS65 cells (Her2+) GFP-C6.5 (AU565 (Her2^high) cells [3]; 0.1 uM): 74,673
Median Fluorescence Values, AUS65 cells (Her2+) GFP-C6.5 (AU565 (Her2^high) cells [3]; 0.3 uM): 128,374
Median Fluorescence Values, AUS65 cells (Her2+) GFP-C6.5 (AU565 (Her2^high) cells [3]; 1 uM): 180,065
Median Fluorescence Values, MDA-MB-468 cells (Her2−) GFP-C6.5 ([4]; 0.03 uM): 13,012
Median Fluorescence Values, MDA-MB-468 cells (Her2−) GFP-C6.5 ([4]; 0.1 uM): 36,343
Median Fluorescence Values, MDA-MB-468 cells (Her2−) GFP-C6.5 ([4]; 0.3 uM): 76,116
Median Fluorescence Values, MDA-MB-468 cells (Her2−) GFP-C6.5 ([4]; 1 uM): 155,734
cellular uptake (flow cytometry with detection of GFP), Her2+ GFP-C6.5 (AU565 (Her2^high) cells [5]; 10 min): 18,606
cellular uptake (flow cytometry with detection of GFP), Her2+ GFP-C6.5 (AU565 (Her2^high) cells [5]; 30 min): 35,981
cellular uptake (flow cytometry with detection of GFP), Her2+ GFP-C6.5 (AU565 (Her2^high) cells [5]; 4 h): 148,261
cellular uptake (flow cytometry with detection of GFP), Her2− GFP-C6.5 ([6]; 10 min): 10,665
cellular uptake (flow cytometry with detection of GFP), Her2− GFP-C6.5 ([6]; 30 min): 22,262
cellular uptake (flow cytometry with detection of GFP), Her2− GFP-C6.5 ([6]; 4 h): 144,923

sfGFP-C6.5: fusion of superfolder GFP, (S4G)6 spacer, C6.5 anti-Her2 scFv, His6
median fluorescence values, MDA-MB-468 (Her2^Low) GFP-C6.5 [1]: 5,632
Median Fluorescence Values, Her2− GFP-C6.5 ([4]; 0.03 uM): 4,460
Median Fluorescence Values, Her2− GFP-C6.5 ([4]; 0.1 uM): 4,824
Median Fluorescence Values, Her2− GFP-C6.5 ([4]; 0.3 uM): 4,947
cellular uptake (flow cytometry with detection of GFP), Her2− GFP-C6.5 ([6]; 10 min): 4,081
cellular uptake (flow cytometry with detection of GFP), Her2− GFP-C6.5 ([6]; 30 min): 3,986
cellular uptake (flow cytometry with detection of GFP), Her2− GFP-C6.5 ([6]; 4 h): 4,704

B1: +2GFP-C6.5: +2GFP fused to C6.5 scFv; variant a or b not stated (protein)
scFv: QVQLLQSGAELKKPGESLKISCKGSGYSFTSYWIAWVRQMPGKGLEYMGLIYPGDSDTKYSPSFQGQVTISVDKSVSTAYLQWSSLKPSDSAVYFCARHDVGYCSSSNCAKWPEYFQHWGQGTLVTVSSGGGGSGGGGSGGGGSQSVLTQPPSVSAAPGQKVTISCSGSSSNIGNNYVSWYQQLPGTAPKLLIYGHTNRPAGVPDRFSGSKSGTSASLAISGFRSEDEADYYCAAWDDSLSGWVFGGGTKLTVLGGHGHHHHHH
modifications: left off: large carriers; small tags and cut ends
cellular uptake by fluorescence microscopy (SKOV-3 cells (Her2^high)): bound to SKOV-3 cells through Her2 but did not internalize in the cells
